Laboratory results from PMC10317891, “Fibroblast activation protein targeted radiotherapy induces an immunogenic tumor microenvironment and enhances the efficacy of PD-1 immune checkpoint inhibition” (European Journal of Nuclear Medicine and Molecular Imaging, 2023).
Values joined by “and” are separate entries in the source; they are usually repeats but may differ in a detail not shown here. Identical values can stand only once. Like-named read-outs stand apart in the source and are kept apart here. Numbered stars: 1 amine (or outer) side, 2 acyl side, 3 side chain; on linkers, the order of the positions; unused ones are H or OH. Bridge positions count the residues as written; N and C are the ends. Peptide text beside a SMILES is read from it. * marks the point of attachment. X1 = O=C(O)CN1CCN(CC(=O)O)CCN(CC(=O)N2CCN(Cc3cc(C[*:1])cc(C[*:2])c3)CC2)CCN(CC(=O)O)CC1; Hexanoyl = CCCCCC(=O)*

Experiments:
[1] = In vivo biodistribution by SPECT/CT imaging; design: species or system C57BL/6 mice; settings: female, C57BL/6, mouse, total radioactivity; for tissue uptake at 3 h / tissue uptake at 24 h / tissue uptake at 48 h / tissue uptake at 72 h: mean ± SD, n = 6, SD
Protocol: All animal experiments were carried out under licenses approved by the respective authorities and in compliance with guidelines on animal welfare. […] Animals were anesthetized (isoflurane 3% in 100% O2) and eye lubricants were applied before each scan. Study was performed at Minerva Imaging ApS (Denmark).
Imaging and image analysis were performed as described. During the scan, mice were kept under isoflurane anesthesia, and body temperature was maintained under warm air. The following acquisition parameters were used for the respective imaging modality.
For quantification, VivoQuant (InviCRO) was used to draw regions of interest (ROIs) in relevant tissues, with a ROI drawn over the left ventricle of the heart to serve as blood pool surrogate. Percentage injected dose per gram of tissue (%ID/g) was calculated from the tissue-associated radioactivity determined in the ROI, the volume of the ROI, and the decay-corrected dose entered during preprocessing of the images in VivoQuant.

[2] = test system: MCA205-mFAP tumors; assay: Tumor mass in pharmacodynamic study; format: in vivo, C57BL/6 mice; settings: day 13 pi; n = 8 per group; vehicle 1433 mg
Description: (§1) Female C57BL/6 mice were subcutaneously implanted with 1 × 10^6 MCA205-mFAP cells (n = 12 per group). […] Treatment began when the MTV was 94 mm^3 (mean body weight 20.4 g). […] Treatment began when MTV was 162 mm^3 (mean body weight 20.8 g) and tumors were collected at days 8 and 13 pi for analysis.

[3] = test system: immune gene expression in MCA205-mFAP tumors; assay: Tumor RNA expression analysis (nCounter PanCancer Immune Profiling panel); format: in vivo, C57BL/6 mice
Description: Total RNA was isolated from tumors using the PureLink RNA Mini kit (Thermo Fisher Scientific) following the manufacturer’s protocol. The nCounter PanCancer Immune Profiling (mouse) panel (NanoString Technologies) was used to measure the expression in the RNA samples. Following hybridization, transcripts were quantitated and analyzed using the nCounter Digital Analyzer and nCounter Advanced Analysis Software v4.0 (NanoString Technologies). Data were normalized for assay efficiency by multiplying each count by a positive normalization factor obtained for each sample. For differential expression analysis, the Benjamini-Yekutieli statistical analysis, which calculates false discovery rate, was employed to generate an adjusted p-value.

[4] = test system: MCA205-mFAP syngeneic tumor model; assay: Tumor in vivo efficacy study
Protocol: Female C57BL/6 mice were subcutaneously implanted with 1 × 10^6 MCA205-mFAP cells (n = 12 per group). […] Treatment began when the MTV was 94 mm^3 (mean body weight 20.4 g).
Calculation of tumor growth inhibition (TGI). Percent TGI is defined as the difference between the mean tumor volume of the test group and the control group. TGI values are calculated as follows:
Tᵢ is the mean tumor volume of a treatment group on a given day i, T₀ is the mean tumor volume of the treatment group on the day treatment started (day 0), Vᵢ is the mean tumor volume of the vehicle control group on the same day as Tᵢ, and V₀ is the mean tumor volume of the vehicle group on the initial day of treatment (day 0).
Calculation of body weight loss. Relative body weight (RBW) was calculated as follows:
BWᵢ is the mean body weight of one group on a given day i, BW0 is the mean body weight of the same group on the day treatment started (day 0).
Statistical analysis. For the evaluation of the statistical significance of antitumor efficacy, body weight change, and immune profiling, two-way ANOVA with multiple comparisons was performed using GraphPad Prism (Version 8.4).
All P values <0.05 were considered statistically significant.

[5] = test system: immune infiltrates of MCA205-mFAP tumors; assay: Ex vivo immune profiling of tumors by flow cytometry; settings: for CD8^+ (%, CD45^+) / CD86^+ on TAM (MFI) / CD127^+CD8^+ (%, CD8^+) / CD127 on CD127^+CD8^+ (MFI) / T cells (%, CD45^+) / TAM (%, CD45^+) / CD45^+ (%, total): mean ± SEM; for CD8^+ (%, CD45^+) / CD86^+ on TAM (MFI) / CD127^+CD8^+ (%, CD8^+) / CD127 on CD127^+CD8^+ (MFI) / T cells (%, CD45^+) / TAM (%, CD45^+) / CD4+ (%, CD45+) / CD25+CD4+ (%, CD4+) / CD25+CD8+ (%, CD8+) / CD25 on CD4+ (MFI) / CD25 on CD25+CD8+ (MFI) / CD86+ TAMs (%, TAMs) / CD127+CD4+ (%, CD4+) / CD127 on CD4+ (MFI) / CD45^+ (%, total): n = 8 per group; for CD45^+ (%, total): tumor flow cytometry;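 on all read-outs here: subcutaneous MCA205-mFAP tumors in female C57BL/6 mice, treated from a mean tumor volume of 162 mm^3, excised on day 8 or 13 pi and profiled by flow cytometry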
Protocol: as §1
Tumors were dissected into small pieces, digested using a tumor dissociation enzyme mix (Miltenyi Biotec) at 37 °C for 40 min in a shaking water bath, processed through 70 μM cell strainers and counted (NucleoCounter NC-202, Chemotec). Cells (10 × 10^6) were Fc-blocked (2.4G2, BD Biosciences) and stained in FACS buffer (PBS with 0.5% BSA, 0.1% NaN3 and 2 mM EDTA) with Brilliant Stain Buffer Plus (BD Biosciences) for surface markers CD45 (30-F11), CD3 (145-2C11), CD4 (RM4-5), CD8 (53–6.7), CD25 (PC61), CD127 (SB/199), Ly6g (1A8), Ly6c (HK1.4), CD11b (M1/70), CD86 (GL1), CD314 (CX5), F4/80 (T45-2342), and eFlour 780 fixable viability dye (Thermo Fisher Scientific) for 30 min on ice. Anti-Ly6c was purchased from Biolegend, while remaining antibodies were from BD Biosciences. Samples were washed and acquired on the FACSymphony A3 and analyzed in FlowJo v10.8.1 (BD Biosciences, Supplementary Fig. S1).
PMN-MDSC CD45+ CD11b+ Ly6c+ Ly6g+
Mo-MDSC CD45+ CD11b+ Ly6c HighLy6g-
Gating strategy for immune profiling of MCA205-mFAP tumors by flow
cytometry. Representative bivariate density plots show gating strategy to identify the PMN-MDSC, Mo-
MDSC, TAM and T-cells in the MCA205-mFAP tumors (A). Marker sets used to identify each immune
cell type are listed (B).

[6] = test system: T cell infiltrates of MCA205-mFAP tumors; assay: IHC quantification of CD8+ and CD4+ T cells in tumors
Protocol: Tumors were formalin-fixed and paraffin-embedded and processed into 4 μm tissue sections. Tumor sections were stained for FAP (EPR20021, Abcam), CD8 (D4W2Z, Cell Signaling), and CD4 (EPR19514, Abcam) on a Bond Rx autostainer (Leica Biosystems) with Bond Polymer Refine Detection (Leica Biosystems) according to the manufacturer's protocol. After staining, sections were dehydrated and film cover slipped using a TissueTek-Prisma and Coverslipper (Sakura). Whole slide scanning (40x) was performed on an Aperio AT2 (Leica Biosystems). Image analysis and quantification was performed on Aperio ImageScope v12.1 (Leica Biosystems) or QuPath v0.1.2 [18].
A tissue slide containing both intrinsic positive staining structures was included in every staining run. For FAP H-score assessment, the staining intensity was scored as 0, 1, 2, or 3 corresponding to the presence of negative, weak, intermediate, and strong brown staining, respectively. The average percentage positive was calculated for each intensity category and the following calculation was applied: H-score = (% of cells stained at intensity category 1 x 1) + (% of cells stained at intensity category 2 x 2) + (% of cells stained at intensity category 3 x 3). Image analysis scoring was previously validated against scoring performed by a pathologist. For CD4 and CD8 percentage assessment, QuPath positive cell detection function was used.

[7] = day 8 pi, differential expression versus vehicle, 770-plex panel

With `CCCCCC(=O)N[C@H]1CSCc2cc(cc(CN3CCN(C(=O)CN4CCN(CC(=O)O)CCN(CC(=O)O)CCN(CC(=O)O)CC4)CC3)c2)CSC[C@@H](C(=O)N[C@@H](CC(=O)O)C(N)=O)NC(=O)[C@H](Cc2ccccc2)NC(=O)[C@H](CCC(N)=O)NC(=O)[C@H]([C@@H](C)O)NC(=O)[C@@H]2CCCN2C(=O)[C@@H]2CCCN2C1=O` [^177Lu-FAP-2287, metal not drawn] (Hexanoyl-CPPTQFCD-NH2; linker 1-7 via X1; N-terminus and C-terminus assumed) the tissue uptake at 3 h ([1]; blood pool surrogate (left ventricle of the heart), iv, 30 MBq, 3 h p.i., ROI over left ventricle of the heart, read-out: Blood Pool Surrogate %ID/g) was 0.5 %ID/g, the tissue uptake at 24 h ([1]; blood pool surrogate (left ventricle of the heart), iv, 30 MBq, 24 h p.i., ROI over left ventricle of the heart, read-out: Blood Pool Surrogate %ID/g) was 0.1 %ID/g and the tissue uptake at 48 h ([1]; blood pool surrogate (left ventricle of the heart), iv, 30 MBq, 48 h p.i., ROI over left ventricle of the heart, read-out: Blood Pool Surrogate %ID/g) was 0.1 %ID/g. For the same compound, the tissue uptake at 72 h ([1]; blood pool surrogate (left ventricle of the heart), iv, 30 MBq, 72 h p.i., ROI over left ventricle of the heart, read-out: Blood Pool Surrogate %ID/g) was 0.1 %ID/g, the tissue uptake at 3 h ([1]; kidney, 3 h p.i., 30 MBq iv, read-out: Kidney %ID/g) was 2 ± 0.1 %ID/g and the tissue uptake at 24 h ([1]; kidney, 24 h p.i., 30 MBq iv, read-out: Kidney %ID/g) was 1.1 ± 0.1 %ID/g. For the same compound, the tissue uptake at 48 h ([1]; kidney, 48 h p.i., 30 MBq iv, read-out: Kidney %ID/g) was 0.9 %ID/g, the tissue uptake at 72 h ([1]; kidney, 72 h p.i., 30 MBq iv, read-out: Kidney %ID/g) was 0.6 ± 0.1 %ID/g and the tissue uptake at 3 h ([1]; liver, 3 h p.i., 30 MBq iv, read-out: Liver %ID/g) was 0.5 %ID/g. For the same compound, the tissue uptake at 24 h ([1]; liver, 24 h p.i., 30 MBq iv, read-out: Liver %ID/g) was 0.3 %ID/g, the tissue uptake at 48 h ([1]; liver, 48 h p.i., 30 MBq iv, read-out: Liver %ID/g) was 0.3 %ID/g and the tissue uptake at 72 h ([1]; liver, 72 h p.i., 30 MBq iv, read-out: Liver %ID/g) was 0.2 %ID/g. For the same compound, the tissue uptake at 3 h ([1]; tumor, 3 h p.i., 30 MBq (1 nmol) iv, SPECT/CT, read-out: Tumor %ID/g) was 8.2 ± 0.5 %ID/g, the tissue uptake at 24 h ([1]; tumor, 24 h p.i., 30 MBq (1 nmol) iv, SPECT/CT, read-out: Tumor %ID/g) was 2.9 ± 0.2 %ID/g and the tissue uptake at 48 h ([1]; tumor, 48 h p.i., 30 MBq (1 nmol) iv, SPECT/CT, read-out: Tumor %ID/g) was 1.6 ± 0.1 %ID/g. For the same compound, the tissue uptake at 72 h ([1]; tumor, 72 h p.i., 30 MBq (1 nmol) iv, SPECT/CT, read-out: Tumor %ID/g) was 0.9 ± 0.1 %ID/g, the tissue to tissue ratio at 3 h ([1]; tumor/kidney, iv, 30 MBq, 3 h p.i., read-out: T/K ratio (tumor-to-kidney)) was 4.1 and the tissue to tissue ratio at 24 h ([1]; tumor/kidney, iv, 30 MBq, 24 h p.i., read-out: T/K ratio (tumor-to-kidney)) was 2.6. For the same compound, the tissue to tissue ratio at 48 h ([1]; tumor/kidney, iv, 30 MBq, 48 h p.i., read-out: T/K ratio (tumor-to-kidney)) was 1.8, the tissue to tissue ratio at 72 h ([1]; tumor/kidney, iv, 30 MBq, 72 h p.i., read-out: T/K ratio (tumor-to-kidney)) was 1.5 and the Tumor mass [2] was 746 mg. The “number of gene transcripts decreased” value [3, 7] was 15 genes, the “number of genes with significantly increased RNA levels” value [3, 7] was 28 genes and the “number of day 8 differentially expressed genes still differentially expressed at day 13 pi” value ([3]; day 13 pi) was 16 genes. The “CCL5 RNA increase in tumors” value ([3]; fold versus vehicle, day not given) was 1.95 fold, the “TGI, Day 10” value ([4]; day 10 pi, versus vehicle, n = 12 per group) was 74% and the “MTV, Day 10” value ([4]; day 10 pi, 60 MBq 177Lu-FAP-2287 single iv dose and/or 10 mg/kg anti-PD-1 ip twice weekly, mean ± SEM, n = 12, vehicle 749.6 ± 91.2, SEM) was 266.5 ± 53.2 mm^3. The RBW at nadir ([4]; relative body weight change at nadir (Day 2), mean ± SEM, n = 12, SEM) was -1.1 ± 0.7%, the “CD8^+ (%, CD45^+)” value ([5]; Day 8 pi, SEM) was 16.9 ± 3.2% and the “CD86^+ on TAM (MFI)” value ([5]; Day 8 pi, SEM) was 3928 ± 124 MFI. For the same compound, the “CD127^+CD8^+ (%, CD8^+)” value ([5]; Day 8 pi, SEM) was 50.0 ± 5.3%, the “CD127 on CD127^+CD8^+ (MFI)” value ([5]; Day 8 pi, SEM) was 1011 ± 118 MFI and the “T cells (%, CD45^+)” value ([5]; Day 8 pi, SEM) was 22.9 ± 3.6%. The “TAM (%, CD45^+)” value ([5]; Day 8 pi, SEM) was 23.0 ± 1.1%, the “CD4+ (%, CD45+)” value ([5]; Day 8 pi) was 6.0 ± 0.6% and the “CD25+CD4+ (%, CD4+)” value ([5]; Day 8 pi) was 60.4 ± 1.3%. The “CD25+CD8+ (%, CD8+)” value ([5]; Day 8 pi) was 7.7 ± 1.1%, the “CD25 on CD4+ (MFI)” value ([5]; Day 8 pi) was 931 ± 117 MFI and the “CD25 on CD25+CD8+ (MFI)” value ([5]; Day 8 pi) was 84 ± 6 MFI. The “CD86+ TAMs (%, TAMs)” value ([5]; Day 8 pi) was 89.5 ± 1.7%, the “CD127+CD4+ (%, CD4+)” value ([5]; Day 8 pi) was 41.0 ± 1.8% and the “CD127 on CD4+ (MFI)” value ([5]; Day 8 pi) was 777 ± 43 MFI. The “CD45^+ (%, total)” value ([5]; Day 8 pi, SEM) was 23.6 ± 3.1%, the “CD8^+ (%, CD45^+)” value ([5]; Day 13 pi, SEM) was 11.9 ± 1.5% and the “CD86^+ on TAM (MFI)” value ([5]; Day 13 pi, SEM) was 4063 ± 143 MFI. For the same compound, the “CD127^+CD8^+ (%, CD8^+)” value ([5]; Day 13 pi, SEM) was 44.5 ± 3.7%, the “CD127 on CD127^+CD8^+ (MFI)” value ([5]; Day 13 pi, SEM) was 874 ± 86 MFI and the “T cells (%, CD45^+)” value ([5]; Day 13 pi, SEM) was 19.0 ± 1.5%. The “TAM (%, CD45^+)” value ([5]; Day 13 pi, SEM) was 39.4 ± 1.4%, the “CD4+ (%, CD45+)” value ([5]; Day 13 pi) was 7.2 ± 0.4% and the “CD25+CD4+ (%, CD4+)” value ([5]; Day 13 pi) was 64.5 ± 1.2%. For the same compound, the “CD25+CD8+ (%, CD8+)” value ([5]; Day 13 pi) was 5.3 ± 0.6%, the “CD25 on CD4+ (MFI)” value ([5]; Day 13 pi) was 1182 ± 80 MFI and the “CD25 on CD25+CD8+ (MFI)” value ([5]; Day 13 pi) was 70 ± 4 MFI. For the same compound, the “CD86+ TAMs (%, TAMs)” value ([5]; Day 13 pi) was 92.0 ± 1.2%, the “CD127+CD4+ (%, CD4+)” value ([5]; Day 13 pi) was 38.9 ± 2.2% and the “CD127 on CD4+ (MFI)” value ([5]; Day 13 pi) was 736 ± 51 MFI. The “CD45^+ (%, total)” value ([5]; Day 13 pi, SEM) was 21.6 ± 1.4%, the “CD86+ Mo-MDSCs (%, Mo-MDSCs)” value ([5]; mouse, in vivo) was 84.9 ± 1.2% and 82.2 ± 2.9% and the “PMN-MDSCs (%, CD45+)” value ([5]; mouse, in vivo) was 9.6 ± 3.9% and 10.0 ± 1.3%. For the same compound, the “CD86^+ on Mo-MDSC (MFI)” value ([5]; mouse, in vivo, SEM) was 3267 ± 80 MFI and 2939 ± 114 MFI, the “Mo-MDSC (%, CD45^+)” value ([5]; mouse, in vivo, SEM) was 34.9 ± 0.9% and 21.3 ± 1.3% and the “CD8^+ T cells by IHC (% of total cells)” value ([6]; day 8 pi, vehicle 4.9%) was 9.0%. For the same compound, the “CD8^+ T cells by IHC (% of total cells)” value ([6]; day 13, vehicle 4.4%) was 8.5%.
